The record followed here is patent US20210379012A1, “ANTIANGIOGENIC CHROMANE DERIVATIVE AND USES THEREOF” (Indiana University Research and Technology Corporation, priority 2018, published 2021).

Common to all, as to format: cell-based
The test system of assay [1] is human retinal endothelial cells (HRECs). Description: alamarBlue proliferation assay, HRECs. As to conditions: HREC, 48 hours' incubation. The procedure: (§1) EBM-2 and IMDM growth media were purchased from Lonza (Walkersville, Md., USA). RPMI and DMEM media were purchased from Thermo Scientific (Waltham, Mass., USA). ARPE19 cells were obtained from ATCC (Manassas, Va., USA). HRECs and Attachment Factor were purchased from Cell Systems (Kirkland, Wash., USA) and were used between passages 5 and 8. Endothelial Growth Medium (EGM-2) was prepared by mixing the contents of an EGM-2 “Bullet Kit” (Cat. no. CC-4176) with Endothelial Basal Medium (EBM) (Lonza). The EGM-2 “Bullet Kit” contains hydrocortisone, human fibroblast growth factor (hFGF), VEGF, R3-insulin like growth factor (R3-IGF-1), ascorbic acid, human epidermal growth factor (hEGF), gentamycin and heparin along with 2% fetal bovine serum (FBS). ARPE19 cells were grown in DEM medium containing 10% FBS and 1% penicillin-streptomycin (pen-strep). 92-1 cells were grown in RPMI medium containing 10% FBS and 1% pen-strep. Y79 cells were grown in RB medium (IMDM+10% FBS+55 μM β-mercaptoethanol+10 μg/mL Insulin+1% pen-strep). […]
(§2) The proliferation of cells was monitored by an alamarBlue based fluorescence assay. […] At the end of the incubation, 11.1 μL of alamarBlue reagent was added and 4 hours after, fluorescence readings were taken with excitation and emission wavelengths of 560 nm and 590 nm respectively. Data were analyzed and dose response curves generated using GraphPad Prism software (v. 6.0).
Background: The colour change of resazurin is a common sign of viable cells or microbes.

The test system of assay [2] is ARPE19 retinal pigment epithelial cells. Description: alamarBlue proliferation assay, ARPE19. As to conditions: Homo sapiens, ARPE-19, 48 hours' incubation. The procedure:
as §1, §2

In assay [3] the test system is 92-1 uveal melanoma cells. Kind of assay: alamarBlue proliferation assay, 92-1. The settings on record: 48 hours' incubation. The procedure:
as §1, §2

Assay [4] relates to Y79 retinoblastoma cells. Kind of assay: alamarBlue proliferation assay, Y79. The settings on record: 48 hours' incubation. As for the experimental part: as §1, §2

Each structure is given as a SMILES string.

By GI50 is commonly meant the concentration that inhibits growth by half. Lower therefore signals greater sensitivity of the cells. In the case of `COc1ccc(CC2COc3cc(OC)c(OC)c(OC)c3C2)cc1O` (stereo not shown) [compound (1)], the GI50 was 0.00152 µM in assay [1], above 100 µM in assay [2], 28 µM in assay [3] and 17 µM in assay [4].
